Literature values as cited in patent US20140328945A1, “METHOD FOR STABILIZING AN ELECTROCHEMICALLY GENERATED SANITIZING SOLUTION HAVING A PREDETERMINED LEVEL OF FREE AVAILABLE CHLORINE AND pH” (Aquaxo, Inc., priority 2013, published 2014).

Experiments:
Escherichia coli = conditions: E. coli exposed to Hypochlorous Acid
E. coli [1] = conditions: 2.6 ppm, dilute bacterial suspensions, in about 5 minutes
E. coli [2] = test system: E. coli

In the case of `OCl` [Hypochlorous Acid], the “time to lose viability” value (Escherichia coli) is given as “less than 100 ms”, the growth inhibition (E. coli [1]) is given as 100% and the “concentration required for 100% kill in 5 minutes” value (A. aerogenes) is given as 0.08 ppm. For the same compound, the “concentration required for 100% kill in 5 minutes” value (S. typhosa) was 0.06 ppm, the “concentration required for 100% kill in 5 minutes” value (S. clysvnteriae) was 0.05 ppm and the “concentration required for 100% kill in 5 minutes” value (E. coli [2]) was 0.03 ppm.
